In patent publication US10457665B2, “1,4-di-(4-methylthiophenyl)-3-phtaloylazetidine-2-one and the derivatives thereof” (Universite De Nantes, priority 2015, dated 2019):
One block for each compound: values may come before it.

What was measured:
C57BL/6 mice = experiment: Gastrointestinal transit (charcoal), anandamide-induced inhibition; type: in vivo, mouse; details: agonist alone, 10 mg/kg i.p.
Protocol: Transit through the stomach and the intestine was measured via oral administration of vegetable charcoal suspended in gum arabic used herein as nonabsorbable marker. Briefly, following a short fast, C57BL/6 mice were injected intraperitoneally (i.p.) with anandamide (10 mg/kg) in the presence or absence of the molecule of interest JM-00.266 (i.e., compound IA) (10 mg/kg) before oral charcoal administration. 25 minutes later, the animals were sacrificed by cervical dislocation in order to entirely remove the intestine. The distance between the beginning of the pylorus and the location of the charcoal bolus was measured.

CB1R (pcDNA3.1-mCB1) = target: T1, CB1R (pcDNA3.1-mCB1) (Mus musculus, UniProt P47746); experiment: GloSensor cAMP assay in CB1R-transfected HEK293T/17 cells; type: cell-based; details: for cAMP concentrations in the absence of agonist (AEA): HEK293T/17 cells transfected with mCB1, forskolin 1 μM, FIG. 2
T1 construct: expressed in transfected cells; host or cells: HEK293T/17 (ATCC), transient transfection with FuGENE HD
Protocol: HEK293T/17 (ATCC) cells were cultured in DMEM 10% FCS, then seeded at 30000 cells/well in 96-well plates. After 24 h, the cells were subjected to transient transfection by FuGENE HD (Promega) by pcDNA3.1-mCB1 (50 ng) and pGlo (100 ng) plasmids with or without pertussis toxin (PTX). For the control assays, the cells were transfected with empty pcDNA3 (EV) and pGlo vectors with or without PTX. At 48 h (24 h post-transfection), the cells were loaded for 2 h with 2% GloReagent in CO2-independent medium with 10% FCS (80 μL/well).
The cells were then treated by adding, at t=0, 10 μL/well of Forskolin (FSK) 1 μM final, in order to increase the basal cAMP concentration. The kinetics of appearance of cAMP was monitored for 10 minutes. At t=10, the molecules to be tested were added and the cAMP variations measured for 20 minutes. The light signal was measured in RLU and is expressed as % response relative to the signal read at t=10 min (FSK1 μM). Sigmoidal curves were obtained by measurement at t=10 min after addition of the molecule to be tested (thus t=20 min total) of the percentage of light signal as a function of molecule concentration. The 4PL regression was carried out using the Sigma Plot software and made it possible to obtain an EC50 (1 experiment, n=3).

[1] = system: CB1R expression in liver explants of ob/ob mice; experiment: Liver explant culture, CB1R gene expression (RT-PCR); type: cell-based, mouse; details: liver explants of ob/ob mice treated 21 h, FIG. 1
Protocol: The liver of the mice was perfused in situ, under sodium pentobarbital anaesthesia (50 mg/kg), with Hank's medium (pH 7.4) saturated with oxygen. Next, the liver was sectioned using a Brendel/Vitron slicer (Tucson, Ariz., USA) in the same medium. The liver sections (about 200 μm) were then incubated 21 h in William's medium E (WME) oxygenated and supplemented with deactivated foetal calf serum (10%) and antibiotic/antifungal cocktail (1%) under controlled atmosphere (5% CO2), to which is added either the antagonist to be tested or vehicle.
Total messenger RNA (mRNA) extraction was carried out with Tri Reagent (Euromedex, France) and consecutive synthesis of complementary DNA (cDNA) was carried out from 1 μg of mRNA with the Bio-Rad iScripttm Reverse Transcription super mix kit (Bio-Rad, France).
Gene expression was evaluated by semi-quantitative real-time reverse transcription-polymerase chain reaction (RT-PCR). The primers used were designed using the Primer3Plus software (http://www.bioinformatics.nl/cgi-bin/primer3plus/primer3plus.cgi) and were synthesized by MWG-Biotech (TATA box-binding protein: Sense […], antisense […]; CB1R: Sense […], antisense aaccccacccagtttgaac). Semi-quantification of gene expression was obtained by taking into account the efficacy of each PCR and after standardization with the reporter gene, TATA box-binding protein.

CB1R -/- mice = experiment: Acute oral glucose tolerance test (OGTT) in CB1R KO mice; type: in vivo, mouse; details: 10 mg/kg i.p., OGTT 2 g/kg
Protocol: (§1) In order to evaluate the short-term effects of the rimonabant-like molecules, as well as their selectivity for CB1R, wild-type C57BL/6 mice and CB1R −/− mice underwent an oral glucose tolerance test (OGTT at 2 g/kg) 10 min after i.p. injection of vehicle or of JM-02.003 or JM-00.266 (i.e., compound IA) (10 mg/kg). Blood glucose was measured at times t=0, t=15 min, t=30 min, t=45 min, t=60 min, t=90 min, and t=120 min post-oral. glucose administration using a Contour®TS blood glucose monitor (ref. 81574201, Bayer HealthCare) and reactive strips (ref. 81574274, Bayer HealthCare).

wild-type C57BL/6 mice = experiment: Acute oral glucose tolerance test (OGTT) in wild-type mice; type: in vivo, mouse; details: 10 mg/kg i.p. 10 min before 2 g/kg oral glucose load, wild-type C57Bl/6J mice
Protocol: as §1

[2] = system: CB1R expression in liver explants of ob/ob mice; details: previous study (Jourdan et al. 2012); cited from earlier work
obese C57BL/6 mice [3] = experiment: ITT before and after 30-day chronic treatment; type: in vivo, mouse; details: obese mice after 30 days of treatment, 10 mg/kg
Protocol: (§2) In order to evaluate the long-term effects of the treatment on blood glucose control, glucose tolerance (OGTT) and insulin sensitivity (ITT) were evaluated pre- and post-treatment. Thus, for the OGTT the mice were force-fed glucose (2 g/kg), and for the ITT the mice received an i.p. injection of insulin (0.5 IU/kg). In both cases, blood glucose was measured at times t=0, t=15 min, t=30 min, t=45 min, t=60 min, t=90 min, and t=120 min post-glucose ingestion using a Contour®TS blood glucose monitor (ref. 81574201, Bayer HealthCare) and reactive strips (ref. 81574274, Bayer HealthCare).

obese C57BL/6 mice [4] = experiment: Plasma liver markers after 30-day chronic treatment; type: in vivo, mouse
From the text: (§3) In order to determine the long-term effects of the molecules of interest, C57BL/6 mice made obese by means of a high-sucrose, high-fat diet (HSHF: 30% crude fat, 33.5% carbohydrates; ref. E15126-34; ref. E15126-34, SSNIFF, Soest, Germany) for 20 weeks. These mice then received daily an i.p. injection of rimonabant, JM-00.266 (i.e., compound IA) or vehicle for a period of 30 days. In parallel, weight and food intake were monitored every two days following the beginning of the treatment.
Total cholesterol, triglycerides and hepatic markers were assayed by a Dimension Vista Intelligent Lab System (Siemens, Saint-Denis, France) using suitable reagents.

obese C57BL/6 mice [5] = experiment: Food intake, body weight and body composition (EchoMRI) during 30-day chronic treatment; type: in vivo, mouse
From the text: as §3
The long-term effect of the treatment on body composition was measured using an EchoMRI™ scanner allowing non-invasive analysis of fat mass, lean mass and body fluid composition by nuclear magnetic resonance (NMR) on the live animal without anaesthesia.

obese C57BL/6 mice [6] = experiment: OGTT before and after 30-day chronic treatment; type: in vivo, mouse; details: obese mice after 30 days of treatment, 10 mg/kg
Protocol: as §2

obese C57BL/6 mice [7] = experiment: Open-field test after 30-day chronic treatment; type: in vivo, mouse; details: end of 30-day treatment, 10 mg/kg i.p.
Protocol: Locomotor activity of the mice was measured at the conclusion of the chronic treatment with rimonabant or molecule JM-00.266 (i.e., compound IA) by an infrared monitoring system. To that end, the animals were placed individually in 43×43 cm plexiglass boxes (MED associates) for 20 min. Two series of 16 pulsed infrared beams were spaced 2.5 cm apart on opposite walls to record ambulatory X-Y movements at 100 ms resolution. The centre was defined as a central 32×32 cm square. In addition to locomotor activity information, this test makes it possible to predict anxiolytic activity in response to novelty or to an anxiogenic environment. The variables measured in the open field are total ambulatory activity (in cm), the number of entries and the time spent in the central area as well as the distance traversed in the centre divided by the total distance traversed.

[8] = obese mice, 10 mg/kg i.p. daily, 30 days

T1 sequence (P47746 whole entry): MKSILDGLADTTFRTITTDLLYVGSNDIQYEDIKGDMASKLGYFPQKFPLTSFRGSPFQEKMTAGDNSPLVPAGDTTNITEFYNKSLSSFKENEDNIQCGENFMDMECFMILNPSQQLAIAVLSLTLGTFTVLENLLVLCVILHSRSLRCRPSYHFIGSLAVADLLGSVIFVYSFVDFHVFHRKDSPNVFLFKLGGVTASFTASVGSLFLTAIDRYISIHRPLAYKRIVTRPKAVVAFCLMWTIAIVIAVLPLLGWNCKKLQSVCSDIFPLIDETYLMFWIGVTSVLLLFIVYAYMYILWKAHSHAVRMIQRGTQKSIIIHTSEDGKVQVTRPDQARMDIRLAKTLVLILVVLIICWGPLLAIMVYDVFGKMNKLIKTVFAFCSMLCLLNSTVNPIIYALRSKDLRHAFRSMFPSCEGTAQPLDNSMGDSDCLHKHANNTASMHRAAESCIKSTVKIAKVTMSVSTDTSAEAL

cAMP concentrations in the absence of agonist (AEA) (CB1R (pcDNA3.1-mCB1)): no effect
Compound: O=C1C(N2C(=O)c3ccccc3C2=O)C(c2ccncc2)N1Cc1cccc(Cl)c1 (stereo not drawn) [JM-01.1006]
hepatic CB1R expression [1]: significant decrease

cAMP concentrations in the absence of agonist (AEA) (CB1R (pcDNA3.1-mCB1)): increased
Compound: COc1cc(OC)cc(N2C(=O)C(N3C(=O)c4ccccc4C3=O)C2c2ccncc2)c1 (stereo not drawn) [JM-02.003]
improvement in glucose tolerance in CB1R KO mice (CB1R -/- mice): persists
hepatic CB1R expression [1]: significant decrease
glucose tolerance compared with vehicle (wild-type C57BL/6 mice): improves glucose tolerance

ALPI plasma concentration (obese C57BL/6 mice [4]; [8]): 37.4 ± 2.4
Gamma GT plasma concentration (obese C57BL/6 mice [4]; [8]): <3 U/L
Total bilirubin plasma concentration (obese C57BL/6 mice [4]; [8]): <2 µmol/L
motor activity (obese C57BL/6 mice [7]): increases motor activity
time spent in the centre of the arena / anxiety state (obese C57BL/6 mice [7]): not altered
Compound: Cc1c(C(=O)NN2CCCCC2)nn(-c2ccc(Cl)cc2Cl)c1-c1ccc(Cl)cc1 [SR141716, reference compound]
CB1R expression in liver explants [2]: reduced
insulin resistance (ITT) (obese C57BL/6 mice [3]): improved
ALT and AST concentrations in plasma of obese mice versus control (obese C57BL/6 mice [4]; 30-day chronic treatment): significantly decreased
liver damage markers compared with the control (obese C57BL/6 mice [4]; 30-day chronic treatment): does not cause an increase
ALT plasma concentration (obese C57BL/6 mice [4]; [8]): 21.6 ± 2.3 U/L
AST plasma concentration (obese C57BL/6 mice [4]; [8]): 46.4 ± 3.1 U/L
fat mass versus control mice (obese C57BL/6 mice [5]; end of 30-day treatment, NMR): lower fat mass
lean mass versus control mice (obese C57BL/6 mice [5]; end of 30-day treatment, NMR): higher lean mass
body weight relative to control mice (obese C57BL/6 mice [5]; [8]): lost weight
food intake compared with control mice (obese C57BL/6 mice [5]; [8]): transiently decrease their food intake
basal blood glucose (obese C57BL/6 mice [6]): significant improvement
glucose tolerance (OGTT 2 g/kg) (obese C57BL/6 mice [6]): significant improvement

The remaining lines, values behind:

Compound: CCCCC/C=C\C/C=C\C/C=C\C/C=C\CCCC(=O)NCCO [AEA, reference compound]
gastrointestinal transit (C57BL/6 mice): strongly inhibited
intracellular cAMP concentration on activation of the receptors by agonist (CB1R (pcDNA3.1-mCB1); data not shown): reduction

Compound: CSc1ccc(C2C(N3C(=O)c4ccccc4C3=O)C(=O)N2c2ccccc2)cc1 (stereo not drawn) [JM-00.242]
hepatic CB1R expression [1]: not selected for the remainder of the study

Compound: CSc1ccc(C2C(N3C(=O)c4ccccc4C3=O)C(=O)N2c2ccc(Cl)cc2)cc1 (stereo not drawn) [JM-00.246]
hepatic CB1R expression [1]: not selected for the remainder of the study
